According to article PMC3815523 (ACS chemical biology, 2013):

Experiments:
IRF3 = assay: IRF3-driven luciferase reporter cell line; type: cell-based, mouse
TBK1 in Raw264.7 cells = assay: TBK1 phospho-Ser 172 immunoblot in Raw264.7 cells; type: cell-based, mouse
[1] = test system: full-length mSTING in 293T cells; assay: Response of 293T cells overexpressing full-length mSTING; type: cell-based, mouse; conditions: 293T cells overexpressing mSTING; c-di-GMP 2 μg/ml transfected, DMXAA 500 μM
[2] = target: hSTING CTD (amino acid residues 139-379) (Homo sapiens, UniProt Q86WV6); assay: Isothermal titration calorimetry, hSTING-CTD; type: binding
hSTING CTD (amino acid residues 139-379), sequence (Q86WV6 140-379): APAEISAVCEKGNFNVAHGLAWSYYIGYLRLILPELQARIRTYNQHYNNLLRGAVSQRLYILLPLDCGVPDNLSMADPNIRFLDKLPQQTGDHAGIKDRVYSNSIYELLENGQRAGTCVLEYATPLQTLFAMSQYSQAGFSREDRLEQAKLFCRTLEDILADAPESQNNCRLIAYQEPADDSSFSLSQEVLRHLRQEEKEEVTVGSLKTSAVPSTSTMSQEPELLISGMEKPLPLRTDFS

Raw264.7 cells = assay: IFN-β secretion in Raw264.7 cells; type: cell-based; conditions: Raw264.7 mouse macrophage cell line
mSTING CTD = target: T1, mSTING CTD (Mus musculus, UniProt Q3TBT3); assay: Fluorescence polarization competition assay with fluorescein-labeled c-di-GMP; type: binding; conditions: FP
T1 sequence (Q3TBT3 139-378): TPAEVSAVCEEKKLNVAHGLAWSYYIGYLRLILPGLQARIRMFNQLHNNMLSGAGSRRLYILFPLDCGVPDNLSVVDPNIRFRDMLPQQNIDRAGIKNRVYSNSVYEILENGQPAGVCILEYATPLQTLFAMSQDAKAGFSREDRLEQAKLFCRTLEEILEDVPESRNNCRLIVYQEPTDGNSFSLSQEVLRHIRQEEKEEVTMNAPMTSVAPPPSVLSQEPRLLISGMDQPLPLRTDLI

[3] = target: T2, mSTING CTD (amino acids 139-378) (Mus musculus, UniProt Q3TBT3); assay: Isothermal titration calorimetry, mSTING-CTD; type: binding; conditions: ITC
T2 sequence (Q3TBT3 139-378): T1 sequence (Q3TBT3 139-378)

human leukocytes = conditions: cited from earlier work

| interaction with hSTING CTD ([2]; ITC) | affinity for the CTD of hSTING lower than for mSTING ([2]; from upper bound of detection by ITC ∼100 μM) | SMILES | IRF3 activation and nuclear translocation (IRF3) | TBK1 phosphorylation (phospho-Ser 172) (TBK1 in Raw264.7 cells) | responsiveness of cells [1] | IFN-β secretion (Raw264.7 cells) | competition with fluorescent c-di-GMP probe (apparent IC50) (mSTING CTD) | higher binding affinity of the mouse homolog vs hSTING ([3]; mSTING CTD vs hSTING CTD) | Kd ([3]; read-out: dissociation constant (Kd), 25°C, mSTING CTD) | Kd ([2]; ITC, 25°C, hSTING CTD) | stoichiometry ([2]; ITC, hSTING CTD) | IL-6, IL-8 and TNFα secretion (human leukocytes) |
| --- | --- | --- | --- | --- | --- | --- | --- | --- | --- | --- | --- | --- |
| no interaction | at least 1000 fold | Cc1ccc2c(=O)c3cccc(CC(=O)O)c3oc2c1C [DMXAA, 5,6– dimethylxanthenone-4-acetic acid] | induces IRF3 activation and nuclear translocation | became phosphorylated in response to DMXAA in a dose- and time-dependent manner | responsive | induces IFN-β secretion | – | – | – | – | – | – |
| – | – | Nc1nc2c(ncn2[C@@H]2O[C@@H]3COP(=O)(O)O[C@H]4[C@@H](O)[C@H](n5cnc6c(=O)[nH]c(N)nc65)O[C@@H]4COP(=O)(O)O[C@H]3[C@H]2O)c(=O)[nH]1 [c-di-GMP, cyclic-di-GMP] | – | – | responsive | – | competed out this signal | ~50 fold | ~0.11 µM | ~5.2 µM | 0.59 | – |
| – | – | Cc1cccc2oc3c(CC(=O)O)cccc3c(=O)c12 [XAA-8Me] | – | – | – | – | – | – | – | – | – | increased |
